Data on twelve molecules can be found in patent US10208074B2, “Pyrazole compounds and method for making and using the compounds” (Rigel Pharmaceuticals, Inc., priority 2015, dated 2019).

In assay [1] the test system is IL-23p19. The assay can be described thus: LPS induced IL23p19 in THP-1 cells (with IFNγ primed) assay. The class given is cell-based, Human. The settings on record: Homo sapiens, THP-1, 18 h. The text has this: LPS Induced IL23p19 in THP-1 Cells (with IFNγ Primed) Assay
THP-1 Cells (ATCC, Cat#TIB-202), Dimethyl Sulfoxide (DMSO) (Sigma-Aldrich, Cat#D2650), RPMI 1640 (Cellgro, Cat#10-040-CM), Fetal Bovine Serum (Sigma, Cat#F4135), Albumin From Bovine Serum (BSA) (Sigma-Aldrich, Cat#A7906), LPS (Serotype K-235, Sigma, Product Number L 2143), IFNγ (Peprotech, Cat#300-02) Capture antibody: Human IL-23p19 ELISA (e-Bioscience, Cat. #14-7238-85), Detection antibody: Primary Mouse Biotinylated anti-human IL-12(p40/p70) (e-Bioscience, Cat. #13-7129-85), Secondary HRP-conjugated Streptavidin (R&D Systems, Cat#DY998), 1×PBST Washing Buffer (PBS-Tween tablet) (VWR International, Cat#80058-558), ELISA Blocking Buffer (PBS with 1% BSA), ELISA Dilution Buffer (PBS with 1% BSA), 384 Well Flat-Bottom, MaxiSorp Black Immuno Plates (Thermo Scientific, Cat#12-565-346), 384 Well Flat-Bottom, White Tissue Culture Plates (Thermo Scientific, Cat#12-565-343), Super Signal ELISA Pico Chemiluminescent Substrate (Thermo Scientific, Cat#37070), Cell Titer Glo reagent (Promega, Cat#G7573), Positive control, IKK2VI inhibitor (Calbiochem, Cat#401483), AquaMax 4000 plate washer (Molecular Devices), Luminometer, Wallac Victor2 1420 Multilabel Counter.
On day 1, 50K/well THP-1 cells were seeded and primed with IFNγ (50 ng/mL) in 384-well plates for about 18 hours in RPMI media with 10% FBS. On day 2, the compound was serially diluted in DMSO from 5 mM in 3-fold dilutions, and then diluted 1:125 in RPMI media with 10% FBS. 50 μL/well 2× compound was added to 50 μL/well THP-1 cells (with IFNγ primed) in duplicate in 384 well tissue culture plates. The cells were pre-incubated with compound for 1 hour at 37° C., 5% CO2 before addition of 10 μL/well 11×LPS to give a final concentration of 1 ug/mL LPS. Day 3, after stimulation for 18 hours at 37° C., 5% CO2, the assay plate was centrifuged and 70 μL/well supernatant was harvested. IL-23p19 protein in 70 μL/well of supernatant was measured by sandwich ELISA, and 25 μl/well Cell Titer Glo reagent was added to the remaining cells to measure compound toxicity.
Maxisorp immuno ELISA plates were pre-coated with 25 μL/well of anti-IL-23p19 capture antibody (2.5 ug/mL) in PBS overnight at room temperature. After washing with 1× PBST, the plates were blocked using 100 μL/well of 1% BSA in PBS for 2 hours at room temperature. The plates were washed three times with 1×PBST and 70 μL/well supernatant were added. The plates were incubated at room temperature for 2 hours with shaking and washed three times with 1×PBST. 25 μL/well of biotin labeled anti-IL-12(p40/p70) detection antibody (100 ng/mL) in PBS with 1% BSA was added and the plates were incubated at room temperature for 2 hours with shaking. After washing three times with 1×PBST, 25 μL/well of streptavidin-HRP (1:200) in PBS with 1% BSA was added and the plates were incubated at room temperature for 20 minutes with shaking. The plates were washed three times with 1× PBST and 25 μL/well of Super Signal ELISA Pico Chemiluminescent Substrate were added. The plates were read with a luminometer, and the chemiluminescence values were entered into Athena (Rigel) for curve fitting, EC50 calculation, and database storage.

The subject of assay [2] is IL-23 (p19/p40). Kind of assay: IL23-p19 ELISA, Dendritic, LPS (compound screening using DC cells). The format is cell-based, Human. As for the experimental part:
Compound Screening Using DC Cells
Human PBMC cells (400 million) obtained from the vendor were transferred into a T-175 flask containing 15 ml RPMI media (10% FBS) and incubate for 2 hours at 37° C. After 2 hours, the media including floating cells was aspirated out carefully and 12 ml of fresh RPMI media (10% FBS) containing GMCSF (100 ng/ml) and IL4 (20 ng/ml) was added, and the flask was kept in a 37° C. incubator for 7 days.
After 3 days, fresh GMCSF (100 ng/ml) and IL4 (20 ng/ml) were added to the flask and the incubation continued. After 7 days, the fully differentiated cells were harvested by spinning down (1200 rpm/5 min) and aspirating the media. The cells were suspended in fresh RPMI media (10% FBS) containing 50 ng/ml IFNγ (1000 U/ml) and then plated (50K/well in 100 μl) onto a white clear bottom 96 well plate and left in a 37° C. incubator for 24 hours.
After 24 hours incubation, 100 μl of RPMI media was added containing 2× concentrated test compound per well to the above cell-culture media (final concentration becomes 1×) and the plates were pre-incubated for 1 hour at 37° C. before stimulating with LPS.
After 1 hour compound pre-incubation, 10 piper well of 20× concentrated LPS solution in RPMI media was added to give a final concentration of 1 μg/ml. The mixture was shaken and incubated the plates at 37° C. for an additional 18 hours.
155 μl of the supernatant was harvested from each well carefully (without the tip touching the bottom of the well) and to the remaining 50 μl/well of the cell culture plate was added 50 μl of Cell Titer Glo reagent. The mixture was incubated for 1-2 minutes on a shaker and the plate was read for luminescence intensity to determine the compound cytotoxicity. The cell culture supernatant collected above was used to carry out IL23 ELISA (65 μl -Supernatant) and IL10 ELISA (90 μl—Supernatant) as described below.
Human IL-23 (p19/p40) ELISA Protocol (e-Biosciences)
To 10.5 ml PBS add 50 μl of anti-IL23 (p19) was added capture antibody (2.5 μg/ml). The mixture was mixed well and 100 μl of the coating solution was added to each well of the 96 well white plates from Pierce. The wells were covered and incubated overnight at 4° C.
The anti-IL23 (p19)-antibody-coated plates were washed 2× using TBST (use plate washer) and blocked using 200 μl of 0.5% Casein for 1.5-2 hours at room temperature with shaking.
The plates were washed 2× using TBST and the supernatant was transferred (65 μl/well) to the above pre-blocked/IL23(p19)-antibody-coated 96 well plate, and incubated at room temperature for 1.5 hours with shaking.
The plates were washed 4× using TBST (plate washer) and 100 μl/well detection antibody solution prepared from 2 μl of biotin labeled anti-IL-12 (p40/p70) antibody in 11 ml 1% BSA/PBS solution (1-5000 dilution) was added. The plates were incubated for 1 hour with shaking at Room temperature.
Again, the plates were washed 4× with TBST and 100 μl of HRP labeled Streptavidin (R&D Systems) solution (10 μl/10 ml 1% BSA solution) was added, and the plates were incubated at room temperature for another 45 minutes with shaking.
After 45 minutes, the plates were washed with TBST 4× and 100 ul/well Super Signal ELISA Pico Chemiluminescent Substrate from Pierce (3.5 ml A+3.5 ml B+3.5 ml MQ water) was added. The plates were shaken for 1-2 minutes then read on a plate reader.
In general terms: An ELISA detects its analyte on a solid surface through an enzyme-linked reagent.

Setting [3] is: THP-1 cells, IFNγ primed, LPS 1 ug/mL, 18 hours, 10 pt, read-out: IL23-p19 ELISA, THP1-IFNy, LPS, 10 pt EC50.
Where [4] appears, read: Homo sapiens, 18 h, PBMC-derived DC cells, IFNγ primed, LPS 1 μg/ml, 18 hours, 10 pt, read-out: IL23-p19 ELISA, Dendritic, LPS, 10 pt, EC50.

Molecules are shown by their SMILES. Where two headings read alike, the source gives them in different places.

For orientation: EC50 means the concentration that produces a half-maximal response. For the molecule `CCO[C@@H]1CC[C@H](n2cc(NC(=O)c3csc(-c4cn[nH]c4)n3)c(-c3ccccn3)n2)C1` (relative stereo) [II-147, N-(1-((cis)-3-ethoxycyclopentyl)-3-(pyridin-2-yl)-1H-pyrazol-4-yl)-2-(1H-pyrazol-4-yl)thiazole-4-carboxamide], the values for the 50% effective concentration (EC50) in assay [1] (setting [3]) and in assay [2] (setting [4]) were 0.0574 µM and 0.0987 µM, respectively.
As to `O=C(Nc1cn([C@H]2CC[C@@H](O)C2)nc1-c1ccccn1)c1csc(-c2cn[nH]c2)n1` (relative stereo) [II-149, N-(1-((cis)-3-hydroxycyclopentyl)-3-(pyridin-2-yl)-1H-pyrazol-4-yl)-2-(1H-pyrazol-4-yl)thiazole-4-carboxamide], the EC50 came to 0.0343 µM in assay [1] (setting [3]) and 0.0568 µM in assay [2] (setting [4]).
`O=C(Nc1cn([C@H]2CC[C@H](O)C2)nc1-c1ccccn1)c1csc(-c2cn[nH]c2)n1` (relative stereo) [II-151, N-(1-((trans)-3-hydroxycyclopentyl)-3-(pyridin-2-yl)-1H-pyrazol-4-yl)-2-(1H-pyrazol-4-yl)thiazole-4-carboxamide]: the EC50 was 0.0649 µM in assay [1] (setting [3]) and 0.0622 µM in assay [2] (setting [4]).
Consider `Cn1cc(-c2ccc(C(=O)Nc3cn(CC(C)(C)O)nc3-c3ccccn3)o2)cn1` [Compound I-1, N-(1-(2-hydroxy-2-methylpropyl)-3-(pyridin-2-yl)-1H-pyrazol-4-yl)-5-(1-methyl-1H-pyrazol-4-yl)furan-2-carboxamide 2,2,2-trifluoroacetate], for which the 50% effective concentration (EC50) was found to be 5.66 µM in assay [1] (read-out: IL23-p19 ELISA, THP1-IFNy, LPS, 10 pt EC50 (μM)) and 3.73 µM in assay [2] (Homo sapiens, 18 h, read-out: IL23-p19 ELISA, Dendritic, LPS, 10 pt, EC50 (μM)).
Consider `CC(C)(O)Cn1cc(NC(=O)c2ccc(-c3cn[nH]c3)o2)c(-c2ccccn2)n1` [Compound I-3, N-(1-(2-hydroxy-2-methylpropyl)-3-(pyridin-2-yl)-1H-pyrazol-4-yl)-5-(1H-pyrazol-4-yl)furan-2-carboxamide], for which the EC50 in assay [1] (setting [3]) was found to be 0.424 µM; in assay [2] (setting [4]) it was 0.362 µM.
As for `CCOCCn1cc(NC(=O)c2ccc(-c3cnn(C(=O)OC(C)(C)C)c3)o2)c(-c2ccccn2)n1` [Compound I-4, tert-butyl 4-(5-((1-(2-ethoxyethyl)-3-(pyridin-2-yl)-1H-pyrazol-4-yl)carbamoyl)furan-2-yl)-1H-pyrazole-1-carboxylate], the 50% effective concentration (EC50) in assay [1] (setting [3]) came out at 0.713 µM; in assay [2] (setting [4]) it was 0.619 µM.
For `COCCn1cc(NC(=O)c2ccc(-c3cn[nH]c3)o2)c(-c2ccccn2)n1` [Compound I-5, N-(1-(2-methoxyethyl)-3-(pyridin-2-yl)-1H-pyrazol-4-yl)-5-(1H-pyrazol-4-yl)furan-2-carboxamide], in that order: 0.0826 µM and 0.136 µM.
`COCCn1cc(NC(=O)c2ccc(-c3c[nH]nc3C)o2)c(-c2ccccn2)n1` [Compound I-6, N-(1-(2-methoxyethyl)-3-(pyridin-2-yl)-1H-pyrazol-4-yl)-5-(3-methyl-1H-pyrazol-4-yl)furan-2-carboxamide formic acid]: the EC50 came to 0.264 µM in assay [1] (setting [3]) and 0.993 µM in assay [2] (PBMC-derived DC cells, IFNγ primed, LPS 1 μg/ml, 18 hours, 10 pt, formic acid, read-out: IL23-p19 ELISA, Dendritic, LPS, 10 pt, EC50).
On to `COCCn1cc(NC(=O)c2ccc(-c3cn[nH]c3)o2)c(-c2ncccn2)n1` [Compound I-7, N-(1-(2-methoxyethyl)-3-(pyrimidin-2-yl)-1H-pyrazol-4-yl)-5-(1H-pyrazol-4-yl)furan-2-carboxamide], for which the figures for the half-maximal effective concentration (EC50) in assay [1] (setting [3]) and in assay [2] (setting [4]) were 0.433 µM and 0.399 µM, respectively.
On to `COCCn1cc(NC(=O)c2ccc(-c3c[nH]nc3C)o2)c(-c2ncccn2)n1` [Compound I-8, N-(1-(2-methoxyethyl)-3-(pyrimidin-2-yl)-1H-pyrazol-4-yl)-5-(3-methyl-1H-pyrazol-4-yl)furan-2-carboxamide], for which the EC50 stood at 0.88 µM in assay [1] (setting [3]) and 0.429 µM in assay [2] (setting [4]).
Turning to `Cn1cc(NC(=O)c2ccc(-c3cn[nH]c3)o2)c(-c2ccc(N3CCOCC3)cn2)n1` [Compound I-105, N-(1-methyl-3-(5-morpholinopyridin-2-yl)-1H-pyrazol-4-yl)-5-(1H-pyrazol-4-yl)furan-2-carboxamide], the EC50 in assay [2] (setting [4]) is 0.0265 µM.
For `CCO[C@H]1C[C@@H](n2cc(NC(=O)c3csc(-c4c[nH]nc4C)n3)c(-c3ccccn3)n2)C1` [II-92, N-(1-((1,3-cis)-3-ethoxycyclobutyl)-3-(pyridin-2-yl)-1H-pyrazol-4-yl)-2-(3-methyl-1H-pyrazol-4-yl)thiazole-4-carboxamide], the EC50 in assay [2] (setting [4]) worked out at 0.258 µM.
